Measurements reported in US9856220B2 (AbbVie Deutschland GmbH & Co. KG, priority 2011, dated 2018).

Columns and labels:
[1] = Determination of the microsomal half-life / microsomal clearance, rat liver microsomes; format: in vitro ADME; conditions: 0.5 μM test substance, 0.25 mg of microsomal protein/ml, pH 7.4, 37° C.
Protocol: (§1) b) Determination of the Microsomal Half-Life:
(§2) The metabolic stability of the compounds of the invention was determined in the following assay.
(§3) The test substances were incubated in a concentration of 0.5 μM as follows:
(§4) 0.5 μM test substance are preincubated together with liver microsomes from different species (from rat, human or other species) (0.25 mg of microsomal protein/ml) in 0.05 M potassium phosphate buffer of pH 7.4 in microtiter plates at 37° C. for 5 min. The reaction is started by adding NADPH (1 mg/mL). After 0, 5, 10, 15, 20 and 30 min, 50 μl aliquots are removed, and the reaction is immediately stopped and cooled with the same volume of acetonitrile. The samples are frozen until analyzed. The remaining concentration of undegraded test substance is determined by MSMS. The half-life (T½) is determined from the gradient of the signal of test substance/unit time plot, it being possible to calculate the half-life of the test substance, assuming first order kinetics, from the decrease in the concentration of the compound with time. The microsomal clearance (mCl) is calculated from mCl=ln 2/T½/(content of microsomal protein in mg/ml)×1000 [ml/min/mg]

PDE10A = PDE10A (Homo sapiens (Human), UniProt Q9Y233); assay: Measurement of PDE activity (recombinant PDE, cAMP HTRF); format: biochemical; conditions: 20 nM cyclic nucleotide substrate, 60 minutes at 29 C
Procedure, shortened: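 Recombinant human PDE10A in 20 mM Tris-HCl pH 7.5, 10 mM MgCl2, 0.1% BSA with 20 nM cyclic nucleotide substrate; reaction 60 min at 29 C after compound preincubation with enzyme. Residual cAMP detected by HTRF (cAMP-d2/anti-cAMP cryptate); IC50 from inhibitor concentration versus PDE activity.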

[2] = Determination of the microsomal half-life / microsomal clearance, human liver microsomes; format: in vitro ADME; conditions: 0.5 μM test substance, 0.25 mg of microsomal protein/ml, pH 7.4, 37° C.
Protocol: as §1, §2, §3, §4

Sequence of PDE10A (Q9Y233 whole entry, species assumed): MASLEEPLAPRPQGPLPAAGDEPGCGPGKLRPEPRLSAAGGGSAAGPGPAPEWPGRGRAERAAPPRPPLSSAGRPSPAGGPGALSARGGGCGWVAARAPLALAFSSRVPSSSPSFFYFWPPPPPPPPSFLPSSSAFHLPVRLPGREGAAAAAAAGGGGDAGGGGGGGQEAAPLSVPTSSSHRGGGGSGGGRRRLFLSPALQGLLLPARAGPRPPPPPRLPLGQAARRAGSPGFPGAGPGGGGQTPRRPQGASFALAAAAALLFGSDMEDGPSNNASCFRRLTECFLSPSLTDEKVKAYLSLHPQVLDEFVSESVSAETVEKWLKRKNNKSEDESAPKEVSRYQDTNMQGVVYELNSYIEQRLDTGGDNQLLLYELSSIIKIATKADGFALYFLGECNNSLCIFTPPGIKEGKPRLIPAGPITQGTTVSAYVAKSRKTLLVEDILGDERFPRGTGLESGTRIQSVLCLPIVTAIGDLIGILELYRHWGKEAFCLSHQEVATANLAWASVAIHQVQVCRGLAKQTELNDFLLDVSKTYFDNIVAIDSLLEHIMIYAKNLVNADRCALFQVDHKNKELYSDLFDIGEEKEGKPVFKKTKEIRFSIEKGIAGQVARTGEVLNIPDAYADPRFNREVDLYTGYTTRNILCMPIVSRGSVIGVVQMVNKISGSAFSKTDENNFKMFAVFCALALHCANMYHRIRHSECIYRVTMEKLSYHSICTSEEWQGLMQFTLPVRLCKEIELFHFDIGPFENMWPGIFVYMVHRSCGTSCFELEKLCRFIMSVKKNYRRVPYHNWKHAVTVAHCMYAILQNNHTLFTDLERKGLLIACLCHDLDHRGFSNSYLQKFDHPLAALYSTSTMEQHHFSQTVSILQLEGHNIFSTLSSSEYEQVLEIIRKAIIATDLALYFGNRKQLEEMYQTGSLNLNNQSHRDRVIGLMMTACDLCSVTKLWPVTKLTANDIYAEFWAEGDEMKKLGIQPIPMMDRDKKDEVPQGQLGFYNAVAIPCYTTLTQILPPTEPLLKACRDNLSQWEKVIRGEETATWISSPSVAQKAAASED

SMILES	Rat mCl [1]	IC50 (PDE10A) [nM]	Human mCl [2]
CCC(CC)n1cc(C(=O)NCc2ccccc2S(=O)(=O)N2CCN(C)CC2)c2cc(OC)c(OC)cc2c1=O [Example 219, 2-(1-Ethyl-propyl)-6,7-dimethoxy-1-oxo-1,2-dihydro-isoquinoline-4-carboxylic acid 2-(4-methyl-piperazine-1-sulfonyl)-benzylamide]	+ (100-220 μl min^−1 mg^−1)	< 100	+ (100-220 μl min^−1 mg^−1)
CCn1cc(C(=O)Nc2cccc(OC)c2)c2cc(OC)c(OC)cc2c1=O [Example 147, 2-Ethyl-6,7-dimethoxy-N-(3-methoxyphenyl)-1-oxo-1,2-dihydroisoquinoline-4-carboxamide]	++ (<100 μl min^−1 mg^−1)	100 to 200	++ (<100 μl min^−1 mg^−1)
COc1cc2c(C(=O)NC3CCc4ccccc43)cn(C(C)C)c(=O)c2cc1OC (stereo not drawn) [Example 198, 2-Isopropyl-6,7-dimethoxy-1-oxo-1,2-dihydro-isoquinoline-4-carboxylic acid indan-1-ylamide]	++ (<100 μl min^−1 mg^−1)	200 to 500	+ (100-220 μl min^−1 mg^−1)
CCn1cc(C(=O)NCc2cc(C)cs2)c2cc(OC)c(OC)cc2c1=O [Example 317, 2-Ethyl-6,7-dimethoxy-N-[(4-methyl-2-thienyl)methyl]-1-oxo-isoquinoline-4-carboxamide]	+ (100-220 μl min^−1 mg^−1)	100 to 200	++ (<100 μl min^−1 mg^−1)
CCC(CC)n1cc(C(=O)NC2CCc3ncccc32)c2cc(OC)c(OC)cc2c1=O (stereo not drawn) [Example 186, 2-(1-Ethyl-propyl)-6,7-dimethoxy-1-oxo-1,2-dihydro-isoquinoline-4-carboxylic acid (6,7-dihydro-5H-[1]pyrindin-5-yl)-amide]	++ (<100 μl min^−1 mg^−1)	100 to 200	++ (<100 μl min^−1 mg^−1)
CCC(CC)n1cc(C(=O)NCc2nncs2)c2cc(OC)c(OC)cc2c1=O [Example 201, 2-(1-Ethyl-propyl)-6,7-dimethoxy-1-oxo-1,2-dihydro-isoquinoline-4-carboxylic acid ([1,3,4]thiadiazol-2-ylmethyl)-amide]	++ (<100 μl min^−1 mg^−1)	200 to 500	++ (<100 μl min^−1 mg^−1)
CCC(CC)n1cc(C(=O)NCc2nc(C)cs2)c2cc(OC)c(OC)cc2c1=O [Example 247, 6,7-Dimethoxy-N-((4-methylthiazol-2-yl)methyl)-1-oxo-2-(pentan-3-yl)-1,2-dihydroisoquinoline-4-carboxamide]	++ (<100 μl min^−1 mg^−1)	100 to 200	+ (100-220 μl min^−1 mg^−1)
CCC(CC)n1cc(C(=O)NCc2c(C)noc2C)c2cc(OC)c(OC)cc2c1=O [Example 238, N-((3,5-Dimethylisoxazol-4-yl)methyl)-6,7-dimethoxy-1-oxo-2-(pentan-3-yl)-1,2-dihydroisoquinoline-4-carboxamide]	+ (100-220 μl min^−1 mg^−1)	100 to 200	++ (<100 μl min^−1 mg^−1)
CCC(CC)n1cc(C(=O)NCc2cc(C)on2)c2cc(OC)c(OC)cc2c1=O [Example 244, 6,7-Dimethoxy-N-((5-methylisoxazol-3-yl)methyl)-1-oxo-2-(pentan-3-yl)-1,2-dihydroisoquinoline-4-carboxamide]	++ (<100 μl min^−1 mg^−1)	200 to 500	++ (<100 μl min^−1 mg^−1)
CCC(CC)n1cc(C(=O)NCc2occc2C)c2cc(OC)c(OC)cc2c1=O [Example 267, 6,7-Dimethoxy-N-((3-methylfuran-2-yl)methyl)-1-oxo-2-(pentan-3-yl)-1,2-dihydroisoquinoline-4-carboxamide]	∘ (>220 μl min^−1 mg^−1)	100 to 200	+ (100-220 μl min^−1 mg^−1)
CCC(CC)n1cc(C(=O)N[C@@H](C)c2ccc(F)cc2)c2cc(OC)c(OC)cc2c1=O [Example 246, (S)—N-(1-(4-fluorophenyl)ethyl)-6,7-dimethoxy-1-oxo-2-(pentan-3-yl)-1,2-dihydroisoquinoline-4-carboxamide]	+ (100-220 μl min^−1 mg^−1)	100 to 200	∘ (>220 μl min^−1 mg^−1)
CCC(CC)n1cc(C(=O)NCc2cccnc2)c2cc(OC)c(OC)cc2c1=O [Example 236, 6,7-Dimethoxy-1-oxo-2-(pentan-3-yl)-N-(pyridin-3-ylmethyl)-1,2-dihydroisoquinoline-4-carboxamide]	++ (<100 μl min^−1 mg^−1)	100 to 200	+ (100-220 μl min^−1 mg^−1)
CCn1cc(C(=O)NC2CCc3sccc32)c2cc(OC)c(OC)cc2c1=O (single isomer, unassigned; (-)) [Example 205, (−)-2-Ethyl-6,7-dimethoxy-1-oxo-1,2-dihydro-isoquinoline-4-carboxylic acid (5,6-dihydro-4H-cyclopenta[b]thiophen-4-yl)-amide]	++ (<100 μl min^−1 mg^−1)	200 to 500	++ (<100 μl min^−1 mg^−1)
CCC(CC)n1cc(C(=O)NC2CCc3ncccc32)c2cc(OC)c(OC)cc2c1=O (single isomer, unassigned; (+)) [Example 199, (+)-2-(1-Ethyl-propyl)-6,7-dimethoxy-1-oxo-1,2-dihydro-isoquinoline-4-carboxylic acid (6,7-dihydro-5H-[1]pyrindin-5-yl)-amide]	++ (<100 μl min^−1 mg^−1)	200 to 500	++ (<100 μl min^−1 mg^−1)
CCC(CC)n1cc(C(=O)NC2CC(=O)c3sccc32)c2cc(OC)c(OC)cc2c1=O (stereo not drawn) [Example 195, 2-(1-Ethyl-propyl)-6,7-dimethoxy-1-oxo-1,2-dihydro-isoquinoline-4-carboxylic acid (6-oxo-5,6-dihydro-4H-cyclopenta[b]thiophen-4-yl)-amide]	+ (100-220 μl min^−1 mg^−1)	100 to 200	+ (100-220 μl min^−1 mg^−1)
CCC(CC)n1cc(C(=O)NCC2CCCCC2)c2cc(OC)c(OC)cc2c1=O [Example 190, 2-(1-Ethyl-propyl)-6,7-dimethoxy-1-oxo-1,2-dihydro-isoquinoline-4-carboxylic acid cyclohexylmethyl-amide]	+ (100-220 μl min^−1 mg^−1)	100 to 200	∘ (>220 μl min^−1 mg^−1)
CCn1cc(C(=O)NC2CCc3ccccc32)c2cc(OC)c(OC)cc2c1=O (stereo not drawn) [Example 40, 2-Ethyl-6,7-dimethoxy-1-oxo-1,2-dihydro-isoquinoline-4-carboxylic acid indan-1-ylamide]	++ (<100 μl min^−1 mg^−1)	100 to 200	++ (<100 μl min^−1 mg^−1)
